What all share (experiment): DTP human tumour cell line panel, 48 h
The test system of experiment [1] is DLD-1 colon.
The subject of experiment [2] is DMS 114 small cell lung.
Experiment [3] relates to HCC-2998 colon.
Experiment [4] concerns HOP-18 NSCLC.
The subject of experiment [5] is KM20L2 colon.
Experiment [6] has as its system M19-MEL melanoma.
Experiment [7] relates to SNB-78 CNS.

SMILES strings stand for the structures. Several values for one entry are separate records, joined by “and”; a condition that tells them apart may be missing. Equal values may be shown once.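 In this assay, cells in 96-well plates receive the compound at five concentrations for 48 hours. Endpoints are linearly interpolated between the surrounding concentrations. GI50: concentration for 50% inhibition of growth. TGI: total growth inhibition.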

Among the data in PubChem BioAssay (NCI) are TGI and GI50 values, retold here.

Broadly, the TGI is the concentration at which net growth stops. A lower TGI goes with more potent growth arrest. Broadly, the GI50 is the concentration at which growth is held to half of that of the control.

Turning to `Oc1cc(C2OCCCO2)cc(O)c1O`, the concentration for total growth inhibition (TGI) in experiment [1], in experiment [2], in experiment [3], in experiment [4], in experiment [5] and in experiment [6] was above 100 µM each time. The same compound gave a TGI in experiment [7] above 100 µM.
Turning to `C1C[OH+]CCNCC[OH+]CC[OH+]CCN1.[Cl-].[Pt+4]`, the GI50 in experiment [1], in experiment [3], in experiment [4] and in experiment [5] was above 100 µM throughout. Moreover, the TGI in experiment [1], in experiment [3], in experiment [4] and in experiment [5] was above 100 µM each time.
On to `CN(C)C(=S)/N=c1\ss/c(=N\C(=S)N(C)C)n1-c1ccc(Cl)c(Cl)c1`, for which the TGI in experiment [2], in experiment [3], in experiment [5], in experiment [6] and in experiment [7] was above 100 µM throughout.
As to `O=S1OC2(c3ccccc3-c3ccccc32)c2ccccc21` (stereo not drawn), the TGI in experiment [1], in experiment [2], in experiment [3], in experiment [4], in experiment [5] and in experiment [6] was above 100 µM each time.
For the compound `COC(=O)/C(C=O)=C/Sc1ccccc1`, the TGI in experiment [1] was 66 µM; in experiment [2], 41 µM; in experiment [3], above 100 µM; in experiment [4], above 100 µM; in experiment [5] it was 94.7 µM; in experiment [6], 55.7 µM. Moreover, in experiment [7], the TGI was above 100 µM.
Consider `CC(=O)c1sc(-c2nc(C)c(C(=O)/C=C\c3ccc(/C=C\C(=O)c4sc(-c5nc(C)c(C(C)=O)s5)nc4C)cc3)s2)nc1C`, for which the TGI in experiment [1], in experiment [2], in experiment [3], in experiment [4], in experiment [5] and in experiment [6] was above 100 µM each time. The compound further returned a TGI in experiment [7] above 100 µM.
Turning to `COC(=O)CCC(=O)CC1CC(=O)C2CCCN12` (stereo not drawn), the TGI in experiment [1], in experiment [2], in experiment [3], in experiment [4], in experiment [5] and in experiment [6] was above 100 µM each time. Further, the TGI in experiment [7] was above 100 µM.
Turning to `COC(=O)/C(C)=C/[N+](=O)[O-]`, the TGI was 4.16 µM in experiment [1]; 35.3 µM in experiment [2]; 32.1 µM in experiment [3]; 31.9 µM in experiment [4]; 55.5 µM in experiment [5]; 32.6 µM in experiment [6]. Further, the TGI in experiment [7] was determined as 49.8 µM.
Consider `O=c1[nH]c2cc(Cl)ccc2nc1/C(=N\O)C(O)c1ccc(Cl)cc1Cl` (stereo not drawn), for which the concentration for total growth inhibition (TGI) in experiment [1], in experiment [2], in experiment [3], in experiment [5], in experiment [6] and in experiment [7] was above 100 µM throughout.
As to `Nc1nc(CCl)nc(Nc2ccccc2)n1`, the TGI in experiment [1] is above 100 µM; in experiment [2], 36.5 µM; in experiment [3], 31.7 µM; in experiment [5], 35.9 µM; in experiment [6], 98.8 µM.
On to `COC(=O)/C(C#N)=C1\CCC(O)N1` (stereo not drawn), for which the TGI in experiment [1], in experiment [2], in experiment [3], in experiment [4], in experiment [5] and in experiment [6] was above 100 µM in each case. The concentration for total growth inhibition (TGI) in experiment [7] is above 100 µM.
As to `CC1=NN(C(=O)CC(=O)N(C(=O)c2ccccc2Cl)c2ccc(C)cc2)C(=O)C1N=Nc1ccc([N+](=O)[O-])cc1` (stereo not drawn), the TGI in experiment [1] was above 66.1 µM; in experiment [2], above 60.5 µM; in experiment [3] it was above 100 µM; in experiment [4], above 100 µM; in experiment [5], above 90.1 µM; in experiment [7], above 100 µM.
Take `COc1cccc(-n2c3nc(=O)n(C)c(=O)c-3nc3ccccc32)c1`: the TGI is 96.1 µM in experiment [1]; 25.4 µM in experiment [2]; 38.9 µM in experiment [3]; above 100 µM in experiment [4]; 62.6 µM in experiment [5]; 6.1 µM in experiment [6]. In experiment [7], this compound returned a TGI above 100 µM.
Turning to `CN1NC(=Nc2ccccc2)Sc2c1cnn(-c1ccccc1)c2=O`, the TGI in experiment [1], in experiment [2], in experiment [3], in experiment [4], in experiment [5] and in experiment [6] was above 100 µM each time.
On to `N.N.N.N.[Cl-].[Co+3].[N-]=[N+]=[N-].[N-]=[N+]=[N-]`, for which the GI50 in experiment [1], in experiment [3], in experiment [5] and in experiment [7] was above 100 µM throughout. For the same compound, the concentration for total growth inhibition (TGI) in experiment [1], in experiment [3], in experiment [5] and in experiment [7] was above 100 µM in each case.
Regarding `COC(=O)OCC1OC(N2C(=O)NC(=O)C(Br)C2N=[N+]=[N-])CC1OC(=O)OC` (stereo not drawn), the TGI in experiment [1], in experiment [2], in experiment [3], in experiment [5], in experiment [6] and in experiment [7] was above 100 µM in each case.
Turning to `C[C@@]12CCCc3coc(c31)C(=O)c1cc3c(cc12)C(=O)C=CC3=O`, the GI50 in experiment [1], in experiment [2], in experiment [3], in experiment [4], in experiment [5] and in experiment [6] was above 1 µM in each case. Besides, the TGI was > 1 µM and 6.07 µM in experiment [1]; > 1 µM and 39.9 µM in experiment [2]; > 1 µM and 69.7 µM in experiment [3]; > 1 µM and 28.2 µM in experiment [4]; > 1 µM and 35.1 µM in experiment [5]; > 1 µM and 28 µM in experiment [6]. This compound had a concentration for total growth inhibition (TGI) in experiment [7] above 1 µM.
